Columns and labels:
[1] = system: 5-LO; assay: In vitro heparinised human blood assay, A23187 challenge, LTB4 radioimmunoassay (test b); assay type: cell-based
Description: b) An in vitro assay system involving incubating a test compound with heparinised human blood, prior to challenge with the calcium ionophore A23187 and then indirectly measuring the inhibitory effects on 5-LO by assaying the amount of LTB4 using the specific radioimmunoassay described by Carey and Forder (F. Carey and R. A. Forder, Brit. J. Pharmacol. 1985, 84, 34P) which involves the use of a protein-LTB4 conjugate produced using the procedure of Young et alia (Prostaglandins, 1983, 26(4), 605-613). The effects of a test compound on the enzyme cyclooxygenase (which is involved in the alternative metabolic pathway for arachidonic acid and gives rise to prostaglandins, thromboxanes and related metabolites) may be measured at the same time using the specific radioimmunoassay for thromboxane B2 (TxB2) described by Carey and Forder (see above). This test provides an indication of the effects of a test compound against 5-LO and also cyclooxygenase in the presence of blood cells and proteins. It permits the selectivity of the inhibitory effect on 5-LO or cyclooxygenase to be assessed.

[2] = system: 5-LO; assay: Ex vivo assay: administration of test compound, blood collection, A23187 challenge, LTB4 radioimmunoassay (test c); assay type: in vivo; conditions: oral
[3] = system: 5-LO; assay: Liberation of LTB4 induced by zymosan within an air pouch in male rats (test g); assay type: in vivo; conditions: 3 h, oral, rat air pouch
Description: g) An in vivo system involving measuring the effects of a test compound administered orally against the liberation of LTB4 induced by zymosan within an air pouch generated within the subcutaneous tissue of the back of male rats. The rats are anaesthetised and air pouches are formed by the injection of sterile air (20 ml). A further injection of air (10 ml) is similarly given after 3 days). At 6 days after the initial air injection the test compound is administered (usually orally as the supsension produced when a solution of the test compound in dimethylsulphoxide is added to hydroxypropylmethylcellulose), followed by the intrapouch injection of zymosan (1 ml of a 1% suspension in physiological saline). After 3 hours the rats are killed, the air pouches are lavaged with physiological saline, and the specific radioimmunoassay described above is used to assay LTB4 in washings. This test provides an indication of inhibitory effects against 5-LO in an inflammatory milieu.

IC50 [1]: < 40 nM
Structure (SMILES): COC1(c2cccc(Sc3ccc4c(ccc(=O)n4C)c3)c2)CCOCC1 [Example 1, 4-[3-(1,2-dihydro-1-methyl-2-oxoquinolin-6-ylthio)phenyl]-4-methoxytetrahydropyran]
ED50 [2]: 1.5 mg/kg | ED50 [3]: 1 mg/kg

Source: patent publication US5221677A, “5-lipoxygenase inhibitors quinoline or isoquinoline derivatives” (Imperial Chemical Industries PLC, priority 1989, dated 1993)
